Results on 17 compounds are retold here after patent publication US20250122225A1, “MASP-2 INHIBITORS AND METHODS OF USE” (Omeros Corporation, priority 2023, published 2025).

For one assay, the target named is T1, human α-thrombin (Homo sapiens, UniProt P00734).
T1 construct: enzyme (human α-thrombin (BioPharm® Lab.)) in assay buffer; purchased BioPharm® Lab
Kind of assay: Enzymatic assay for thrombin (fluorogenic peptide substrate Boc-VPR-AMC). It counts as biochemical. A digest of the protocol: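 Assay conditions kept the reaction linear in time, enzyme and substrate, so IC50 approximated Ki apart from tight- or slow-binding cases. Boc-VPR-AMC cleavage by human α-thrombin proceeded 20 min at room temperature in Hepes pH 7.4/NaCl/Tween 20 buffer, then was acid-quenched and read by fluorescence.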

The next assay addresses T2, MASP-2 (CCP1-CCP2-SP) (Homo sapiens, UniProt O00187).
T2 construct: 15 μL of Enzyme MASP-2 (CCP1-CCP2-SP) in Assay Buffer
As to the kind of experiment: Enzymatic assay for MASP-2 inhibitory activity (fluorogenic substrate). It counts as biochemical. A digest of the protocol: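 Fluorescence was normalized between no-enzyme and DMSO-only controls to derive % activity, with IC50 taken as equivalent to Ki except for tight-binding inhibitors. Reactions ran 20 min at room temperature in HEPES pH 7.4/NaCl/Tween 20 buffer, using the C2-derived fluorogenic substrate, before acetic acid stop.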

Structures can show the parent of a compound that is named as a salt.

T2 sequence (O00187 445-686 limits assumed): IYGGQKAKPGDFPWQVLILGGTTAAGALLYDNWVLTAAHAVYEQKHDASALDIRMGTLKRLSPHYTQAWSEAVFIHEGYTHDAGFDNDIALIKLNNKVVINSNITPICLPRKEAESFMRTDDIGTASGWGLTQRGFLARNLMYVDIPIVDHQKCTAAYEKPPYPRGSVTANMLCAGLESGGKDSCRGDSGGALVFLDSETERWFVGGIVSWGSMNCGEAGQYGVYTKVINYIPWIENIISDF
T2 sequence (O00187 287-444 partner limits assumed): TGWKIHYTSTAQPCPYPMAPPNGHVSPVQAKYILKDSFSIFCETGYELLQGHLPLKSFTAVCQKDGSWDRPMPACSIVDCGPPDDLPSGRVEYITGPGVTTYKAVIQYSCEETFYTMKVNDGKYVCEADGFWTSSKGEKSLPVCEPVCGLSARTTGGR

For the compound `O=C(NCc1cc2c(s1)CNC2)[C@@H]1CCc2cnc(NC3(c4ccccc4)CCC3)c(=O)n21` [Compound 261, (S)-N-((5,6-dihydro-4H-thieno[2,3-c]pyrrol-2-yl)methyl)-4-oxo-3-((1-phenylcyclobutyl)amino)-4,6,7,8-tetrahydropyrrolo[1,2-a]pyrazine-6-carboxamide trifluoroacetate], the Ki at human α-thrombin and at MASP-2 (CCP1-CCP2-SP) was below 500 nM in each case.
As for `CCc1cc(CNc2ncc3n(c2=O)[C@H](C(=O)NCc2cc4c(s2)CNC4)CC3)cc(-c2ccccc2)c1` [Compound 262], the Ki at human α-thrombin was 500 to 2500 nM; on MASP-2 (CCP1-CCP2-SP), below 500 nM.
As for `CC[C@@H](Nc1ncc2n(c1=O)[C@H](C(=O)NCc1cc3c(s1)CNC3)CC2)c1ccc2ccccc2c1` [Compound 263, (S)-N-((5,6-dihydro-4H-thieno[2,3-c]pyrrol-2-yl)methyl)-3-(((R)-1-(naphthalen-2-yl)propyl)amino)-4-oxo-4,6,7,8-tetrahydropyrrolo[1,2-a]pyrazine-6-carboxamide trifluoroacetate], the Ki on human α-thrombin is 500 to 2500 nM; on MASP-2 (CCP1-CCP2-SP) it was below 500 nM.
The corresponding values for `CC(C)(C)[C@@H](Nc1ncc2n(c1=O)[C@H](C(=O)NCc1cc3c(s1)CNC3)CC2)c1ccccc1` [Compound 264, (S)-N-((5,6-dihydro-4H-thieno[2,3-c]pyrrol-2-yl)methyl)-3-(((R)-2,2-dimethyl-1-phenylpropyl)amino)-4-oxo-4,6,7,8-tetrahydropyrrolo[1,2-a]pyrazine-6-carboxamide trifluoroacetate] are below 500 nM and below 500 nM.
Consider `CC[C@@H](Nc1ncc2n(c1=O)[C@H](C(=O)NCc1cc3c(s1)CNC3)CC2)c1ccccc1C` [Compound 265, (S)-N-((5,6-dihydro-4H-thieno[2,3-c]pyrrol-2-yl)methyl)-4-oxo-3-(((R)-1-(o-tolyl)propyl)amino)-4,6,7,8-tetrahydropyrrolo[1,2-a]pyrazine-6-carboxamide trifluoroacetate], for which the Ki at human α-thrombin and on MASP-2 (CCP1-CCP2-SP) was below 500 nM each time.
`CC[C@@H](Nc1ncc2n(c1=O)[C@H](C(=O)NCc1cc3c(s1)CNC3)CC2)c1ccc(C)cc1` [Compound 266, (S)-N-((5,6-dihydro-4H-thieno[2,3-c]pyrrol-2-yl)methyl)-4-oxo-3-(((R)-1-(p-tolyl)propyl)amino)-4,6,7,8-tetrahydropyrrolo[1,2-a]pyrazine-6-carboxamide trifluoroacetate]: the Ki on human α-thrombin and on MASP-2 (CCP1-CCP2-SP) was below 500 nM each time.
For `CC[C@@H](Nc1ncc2n(c1=O)[C@H](C(=O)NCc1cc3c(s1)CNC3)CC2)c1cccc(-c2ccccc2)c1` [Compound 267, (S)-3-(((R)-1-([1,1'-biphenyl]-3-yl)propyl)amino)-N-((5,6-dihydro-4H-thieno[2,3-c]pyrrol-2-yl)methyl)-4-oxo-4,6,7,8-tetrahydropyrrolo[1,2-a]pyrazine-6-carboxamide trifluoroacetate], the Ki is 500 to 2500 nM at human α-thrombin and below 500 nM on MASP-2 (CCP1-CCP2-SP).
Consider `CCc1cccc([C@@H](CC)Nc2ncc3n(c2=O)[C@H](C(=O)NCc2cc4c(s2)CNC4)CC3)c1` [Compound 268, (S)-N-((5,6-dihydro-4H-thieno[2,3-c]pyrrol-2-yl)methyl)-3-(((R)-1-(3-ethylphenyl)propyl)amino)-4-oxo-4,6,7,8-tetrahydropyrrolo[1,2-a]pyrazine-6-carboxamide trifluoroacetate], for which the Ki at human α-thrombin and at MASP-2 (CCP1-CCP2-SP) was below 500 nM each time.
In the case of `C[C@@H](NC(=O)[C@@H]1CCc2cnc(N[C@@H](c3ccccc3)C(C)(C)C)c(=O)n21)c1cc2c(s1)CNC2` [Compound 269, (S)-N-((R)-1-(5,6-dihydro-4H-thieno[2,3-c]pyrrol-2-yl)ethyl)-3-(((R)-2,2-dimethyl-1-phenylpropyl)amino)-4-oxo-4,6,7,8-tetrahydropyrrolo[1,2-a]pyrazine-6-carboxamide trifluoroacetate], the results for the Ki on human α-thrombin and at MASP-2 (CCP1-CCP2-SP) were 2500 to 10000 nM and below 500 nM, respectively.
With `C[C@H](NC(=O)[C@@H]1CCc2cnc(N[C@@H](c3ccccc3)C(C)(C)C)c(=O)n21)c1cc2c(s1)CNC2` [Compound 270, (S)-N-((S)-1-(5,6-dihydro-4H-thieno[2,3-c]pyrrol-2-yl)ethyl)-3-(((R)-2,2-dimethyl-1-phenylpropyl)amino)-4-oxo-4,6,7,8-tetrahydropyrrolo[1,2-a]pyrazine-6-carboxamide trifluoroacetate], the Ki at human α-thrombin lay within 10000 to 25000 nM; at MASP-2 (CCP1-CCP2-SP), 2500 to 10000 nM.
As to `O=C(NCc1cc2c(s1)CNC2)[C@@H]1CCc2cnc(NCC3(c4ccccc4)CCC3)c(=O)n21` [Compound 271, (S)-N-((5,6-dihydro-4H-thieno[2,3-c]pyrrol-2-yl)methyl)-4-oxo-3-(((1-phenylcyclobutyl)methyl)amino)-4,6,7,8-tetrahydropyrrolo[1,2-a]pyrazine-6-carboxamide trifluoroacetate], the Ki on human α-thrombin and on MASP-2 (CCP1-CCP2-SP) was below 500 nM throughout.
For the compound `C[C@@H](NC(=O)[C@@H]1CCc2cnc(N[C@@H](c3ccccc3)C3CC3)c(=O)n21)c1cc2c(s1)CNC2` [Compound 272, (S)-3-(((R)-cyclopropyl(phenyl)methyl)amino)-N-((R)-1-(5,6-dihydro-4H-thieno[2,3-c]pyrrol-2-yl)ethyl)-4-oxo-4,6,7,8-tetrahydropyrrolo[1,2-a]pyrazine-6-carboxamide trifluoroacetate], the Ki at human α-thrombin is 2500 to 10000 nM; on MASP-2 (CCP1-CCP2-SP) it was below 500 nM.
On to `C[C@H](NC(=O)[C@@H]1CCc2cnc(N[C@@H](c3ccccc3)C3CC3)c(=O)n21)c1cc2c(s1)CNC2` [Compound 273, (S)-3-(((R)-cyclopropyl(phenyl)methyl)amino)-N-((S)-1-(5,6-dihydro-4H-thieno[2,3-c]pyrrol-2-yl)ethyl)-4-oxo-4,6,7,8-tetrahydropyrrolo[1,2-a]pyrazine-6-carboxamide trifluoroacetate], for which the Ki on human α-thrombin is above 25000 nM; at MASP-2 (CCP1-CCP2-SP), 2500 to 10000 nM.
The corresponding values for `CC(C)[C@@H](Nc1ncc2n(c1=O)[C@H](C(=O)N[C@H](C)c1cc3c(s1)CNC3)CC2)c1ccccc1` [Compound 274, (S)-N-((R)-1-(5,6-dihydro-4H-thieno[2,3-c]pyrrol-2-yl)ethyl)-3-(((R)-2-methyl-1-phenylpropyl)amino)-4-oxo-4,6,7,8-tetrahydropyrrolo[1,2-a]pyrazine-6-carboxamide trifluoroacetate] are 500 to 2500 nM and below 500 nM.
Regarding `CC(C)[C@@H](Nc1ncc2n(c1=O)[C@H](C(=O)N[C@@H](C)c1cc3c(s1)CNC3)CC2)c1ccccc1` [Compound 275, (S)-N-((S)-1-(5,6-dihydro-4H-thieno[2,3-c]pyrrol-2-yl)ethyl)-3-(((R)-2-methyl-1-phenylpropyl)amino)-4-oxo-4,6,7,8-tetrahydropyrrolo[1,2-a]pyrazine-6-carboxamide trifluoroacetate], the Ki on human α-thrombin is above 25000 nM; at MASP-2 (CCP1-CCP2-SP) it was below 500 nM.
As to `CC[C@@H](Nc1ncc2n(c1=O)[C@H](C(=O)N[C@@H](C)c1cc3c(s1)CNC3)CC2)c1ccccc1` [Compound 278], the Ki was 10000 to 25000 nM at human α-thrombin and below 500 nM on MASP-2 (CCP1-CCP2-SP).
The corresponding values for `O=C(NCc1cc2c(s1)CNC2)[C@@H]1CCc2cnc(N[C@@H](c3ccccc3)C3CCCC3)c(=O)n21` [Compound 279, (S)-3-(((R)-cyclopentyl(phenyl)methyl)amino)-N-((5,6-dihydro-4H-thieno[2,3-c]pyrrol-2-yl)methyl)-4-oxo-4,6,7,8-tetrahydropyrrolo[1,2-a]pyrazine-6-carboxamide] are below 500 nM and below 500 nM.

For orientation: Ki means the dissociation constant of the complex between target and ligand, obtained from inhibition or displacement. Read a low Ki as a stronger hold on the target.
